The structures appear in SMILES notation.

ASK1 kinase, sequence (Q99683 whole entry): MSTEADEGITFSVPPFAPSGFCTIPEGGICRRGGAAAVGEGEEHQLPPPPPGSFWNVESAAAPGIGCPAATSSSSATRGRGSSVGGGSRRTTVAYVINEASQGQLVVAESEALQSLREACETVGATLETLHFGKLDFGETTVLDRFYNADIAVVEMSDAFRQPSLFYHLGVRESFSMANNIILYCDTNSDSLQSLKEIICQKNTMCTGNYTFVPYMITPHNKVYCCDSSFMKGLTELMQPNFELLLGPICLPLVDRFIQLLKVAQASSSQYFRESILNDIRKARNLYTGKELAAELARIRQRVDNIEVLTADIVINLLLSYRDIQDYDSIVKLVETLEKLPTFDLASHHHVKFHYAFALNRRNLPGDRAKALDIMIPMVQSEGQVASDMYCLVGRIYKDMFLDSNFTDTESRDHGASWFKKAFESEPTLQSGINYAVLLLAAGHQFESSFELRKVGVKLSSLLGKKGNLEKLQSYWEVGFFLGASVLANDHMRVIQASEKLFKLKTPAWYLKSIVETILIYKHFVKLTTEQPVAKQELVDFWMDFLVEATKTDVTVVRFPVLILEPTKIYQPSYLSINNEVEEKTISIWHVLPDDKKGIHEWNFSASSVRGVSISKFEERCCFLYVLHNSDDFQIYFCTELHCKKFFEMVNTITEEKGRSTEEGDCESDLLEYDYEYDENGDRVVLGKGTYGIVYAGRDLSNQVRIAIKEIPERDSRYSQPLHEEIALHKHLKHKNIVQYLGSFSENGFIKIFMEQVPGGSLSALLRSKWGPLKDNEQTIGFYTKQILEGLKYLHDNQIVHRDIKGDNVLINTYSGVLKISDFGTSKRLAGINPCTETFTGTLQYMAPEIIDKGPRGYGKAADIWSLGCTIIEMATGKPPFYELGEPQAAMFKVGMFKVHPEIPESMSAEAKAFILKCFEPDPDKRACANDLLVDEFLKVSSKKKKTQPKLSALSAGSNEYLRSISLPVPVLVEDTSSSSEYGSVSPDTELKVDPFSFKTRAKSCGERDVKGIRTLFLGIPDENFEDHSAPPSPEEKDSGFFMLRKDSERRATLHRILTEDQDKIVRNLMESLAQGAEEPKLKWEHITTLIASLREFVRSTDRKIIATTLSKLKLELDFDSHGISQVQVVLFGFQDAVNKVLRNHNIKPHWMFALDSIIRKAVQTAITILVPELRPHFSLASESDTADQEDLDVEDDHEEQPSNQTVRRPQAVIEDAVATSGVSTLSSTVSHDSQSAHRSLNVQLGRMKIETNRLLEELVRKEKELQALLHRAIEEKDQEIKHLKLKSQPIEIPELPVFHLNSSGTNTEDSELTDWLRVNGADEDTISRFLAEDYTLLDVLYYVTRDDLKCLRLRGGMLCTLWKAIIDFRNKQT

This assay addresses ASK1 kinase (Homo sapiens (Human), UniProt Q99683). The assay can be described thus: HTRF KinEASE assay of ASK1 kinase activity inhibition. It counts as biochemical. To be noted: 5 nM ASK1, 1 uM STK3 peptide substrate, 100 uM ATP, TR-FRET readout. As to the method: The ability (IC50) of compounds to inhibit ASK1 kinase activity was determined by HTRF® KinEASE™ Assay System. ASK1 was purchased from Thermofisher (Catalogue #PV4011), ATP was purchased from Sigma (Catalogue #A7699), HTRF® KinEASE™ Assay System was obtained from Cisbio (Bedford, Mass.). ½ Area plate was purchased from Perkin Elmer (Catalogue ##6005560). HTRF® KinEASE™-STK is a generic method for measuring serine/threonine kinase activities using a time-resolved fluorescence resonance energy transfer (TR-FRET) immunoassay. The IC50 value for each compound was determined in the presence of compound (various concentration from 0 to 10 μM) and a fixed amount of ATP and peptide substrates. The test compound, 1 uM STK3 peptide substrate, and 5 nM of ASK1 kinase are incubated with kinase reaction buffer containing 50 mM HEPES pH 7.5, 0.01% BRIJ-35, 10 mM MgCl2, and 1 mM EGTA for 30 minutes. 100 uM ATP is added to start kinase reaction and incubated for 3 hours. The STK3-antibody labeled with Eu^3+-Cryptate and 125 nM streptavidin-XL665 are mixed in a single addition with stop reagents provided by the Cisbio kit used to stop the kinase reaction. Fluorescence is detected using an Envision Multilabeled 2014 reader from PerkinElmer. The Fluorescence is measured at 615 nm (Cryptate) and 665 nm (XL665) and a ratio of 665 nm/615 nm is calculated for each well. The resulting TR-FRET is proportional to the phosphorylation level. Staurosporine was used as the positive control. IC50 was determined by XLfit 5.3. By using above method, the inhibition of ASK1 was tested for the compound of formula (I). IC50 ranges are as follows: A<1 nM; 1 nM<B<10 nM; 10 nM<C<100 nM; 100 nM<D<1 μM; E>1 μM.
For orientation: Time-resolved FRET reads energy transfer from a long-lived donor to a nearby acceptor.
The IC50 is the concentration that gives 50% inhibition. The compound `CC(C)n1nnnc1-c1cccc(NC(=O)c2cc(-c3cnn(C4CC4)c3)ccn2)n1` [Example 1] registered an IC50 of 10 to 100 nM. To `Cc1cnc(C(=O)Nc2cccc(-c3nnnn3C(C)C)n2)cc1-c1cnn(C2CC2)c1` [Example 2] belongs 10 to 100 nM; to `CC(C)n1nnnc1-c1cccc(NC(=O)c2cc(-c3cnn(C4CC4)c3)c(F)cn2)n1` [Example 3], 10 to 100 nM; to `CC(C)n1nnnc1-c1cccc(NC(=O)c2cc(-c3cnn(C4CC4)c3)c(N3CCCC3)cn2)n1` [Example 4], 10 to 100 nM. In turn, `CC(C)n1nnnc1-c1cccc(NC(=O)c2cc(-c3cnn(C4CC4)c3)c(N3CCCCC3)cn2)n1` [Example 5] showed an IC50 of 10 to 100 nM. `CC(C)n1nnnc1-c1cccc(NC(=O)c2cc(-c3cnn(C4CC4)c3)c(N3CCOCC3)cn2)n1` [Example 6]: the IC50 was 1 to 10 nM.

In turn, `CC(C)n1nnnc1-c1cccc(NC(=O)c2cc(-c3cnn(C4CC4)c3)c(N3CCN(C)CC3)cn2)n1` [Example 7] yielded an IC50 of 1 to 10 nM.

Take `CC(C)n1nnnc1-c1nc(NC(=O)c2cc(-c3cnn(C4CC4)c3)c(F)cn2)cs1` [Example 8]: the concentration for half-maximal inhibition (IC50) was 10 to 100 nM.

`CC(C)n1nnnc1-c1nc(NC(=O)c2cc(-c3cnn(C4CC4)c3)c(N3CCCC3)cn2)cs1` [Example 9] displayed an IC50 of 1 to 10 nM. Compound `CC(C)n1nnnc1-c1nc(NC(=O)c2cc(-c3cnn(C4CC4)c3)c(N3CCOCC3)cn2)cs1` [Example 10] returned an IC50 of 1 to 10 nM. `CC(C)n1nnnc1-c1nc(NC(=O)c2cc(-c3cnn(C4CC4)c3)c(N3CCCCC3)cn2)cs1` [Example 11] came in with a half-maximal inhibitory concentration (IC50) of 10 to 100 nM. To `CC(C)n1nnnc1-c1nc(NC(=O)c2cc(-c3cnn(C4CC4)c3)c(N3CCN(C)CC3)cn2)cs1` [Example 12] belongs 1 to 10 nM; to `Cc1cnc(C(=O)Nc2cccc(-c3nnnn3[C@H](C)CO)n2)cc1-c1cnn(C2CC2)c1` [Example 13], 1 to 10 nM. In turn, `CC(C)n1nnnc1-c1cccc(NC(=O)c2cc(-c3cnn(C4CC4)c3)c(C(F)(F)F)cn2)n1` [Example 14] showed an IC50 of 10 to 100 nM. Compound `CC(C)n1nnnc1-c1nc(NC(=O)c2cc(-c3cnn(C4CC4)c3)c(C(F)(F)F)cn2)cs1` [Example 15] displayed an IC50 of 10 to 100 nM. To `C[C@H](CO)n1nnnc1-c1cccc(NC(=O)c2cc(-c3cnn(C4CC4)c3)c(C(F)(F)F)cn2)n1` [Example 16] belongs 1 to 10 nM. Regarding `Cc1cnc(C(=O)Nc2cccc(-n3nnnc3C(C)C)n2)cc1-c1cnn(C2CC2)c1` [Example 17], the IC50 was in the range of 10 to 100 nM. In the case of `CC(C)n1nnnc1-c1cccc(NC(=O)c2cc(-c3cnn(C4CC4)c3)c(C(F)F)cn2)n1` [Example 18] it was 1 to 10 nM; in that of `CC(C)n1nnnc1-c1nc(NC(=O)c2cc(-c3cnn(C4CC4)c3)c(C(F)F)cn2)cs1` [Example 19], 1 to 10 nM.

Consider `Cc1cnc(C(=O)Nc2cccc(-c3nnnn3C(C)C)n2)cc1-c1cnn(C(C)(C)C)c1` [Example 20], for which the IC50 lay within 1 to 10 nM. Compound `Cc1cnc(C(=O)Nc2cccc(-n3nnnc3C(C)C)n2)cc1-c1cnn(C(C)(C)C)c1` [Example 21] registered an IC50 of 10 to 100 nM. `Cc1cnc(C(=O)Nc2cccc(-c3nnnn3[C@H](C)CO)n2)cc1-c1cnn(C(C)(C)C)c1` [Example 22] yielded a half-inhibitory concentration (IC50) of 1 to 10 nM. `Cc1cnc(C(=O)Nc2cccc(-c3nnnn3C(C)C)n2)cc1-c1cn(C(C)C)cn1` [Example 23]: the IC50 was in the range of 10 to 100 nM. To `Cc1cnc(C(=O)Nc2cccc(-n3nnnc3C(C)C)n2)cc1-c1cn(C(C)C)cn1` [Example 24] belongs more than 1000 nM; to `Cc1cnc(C(=O)Nc2cccc(-c3nnnn3[C@H](C)CO)n2)cc1-c1cn(C(C)C)cn1` [Example 25], 1 to 10 nM. To `Cc1cnc(C(=O)Nc2cccc(-c3nnnn3C(C)C)n2)cc1-c1cnn(C(C)C)c1` [Example 26] belongs 1 to 10 nM; to `Cc1cnc(C(=O)Nc2cccc(-n3nnnc3C(C)C)n2)cc1-c1cnn(C(C)C)c1` [Example 27], 1 to 10 nM; to `Cc1cnc(C(=O)Nc2cccc(-c3nnnn3[C@H](C)CO)n2)cc1-c1cnn(C(C)C)c1` [Example 28], 1 to 10 nM. To `C[C@H](CO)n1nnnc1-c1cccc(NC(=O)c2cc(-c3cnn(C4CC4)c3)c(C(F)F)cn2)n1` [Example 29] belongs 1 to 10 nM; to `Cc1cnc(C(=O)Nc2cccc(-c3nnnn3C(C)C)n2)cc1-c1cnn(C(F)(F)F)c1` [Example 30], 10 to 100 nM; to `Cc1cnc(C(=O)Nc2cccc(-n3nnnc3C(C)C)n2)cc1-c1cnn(C(F)(F)F)c1` [Example 31], more than 1000 nM. `Cc1cnc(C(=O)Nc2cccc(-c3nnnn3[C@H](C)CO)n2)cc1-c1cnn(C(F)(F)F)c1` [Example 32]: the IC50 fell in the range of 1 to 10 nM. Compound `Cc1cnc(C(=O)Nc2cccc(-c3nnnn3C(C)C)n2)cc1-c1ccn(C(C)C)n1` [Example 33] yielded an IC50 of 10 to 100 nM.

`Cc1cnc(C(=O)Nc2cccc(-n3nnnc3C(C)C)n2)cc1-c1ccn(C(C)C)n1` [Example 34] registered an IC50 of more than 1000 nM. To `Cc1cnc(C(=O)Nc2cccc(-c3nnnn3[C@H](C)CO)n2)cc1-c1ccn(C(C)C)n1` [Example 35] belongs 1 to 10 nM; to `Cc1cnc(C(=O)Nc2cccc(-c3nnnn3C(C)C)n2)cc1-c1ccccn1` [Example 36], 10 to 100 nM; to `Cc1cnc(C(=O)Nc2cccc(-c3nnnn3C(C)C)n2)cc1-c1cccnc1` [Example 37], 1 to 10 nM.

In turn, `Cc1cnc(C(=O)Nc2cccc(-c3nnnn3C(C)C)n2)cc1-c1ccncc1` [Example 38] had an IC50 of 10 to 100 nM.

For the compound `Cc1ncc(-c2cc(C(=O)Nc3cccc(-c4nnnn4C(C)C)n3)ncc2C)s1` [Example 39], the IC50 lay in the range of 1 to 10 nM.

For the compound `Cc1nc(-c2cc(C(=O)Nc3cccc(-c4nnnn4C(C)C)n3)ncc2C)cs1` [Example 40], the IC50 lay in the range of 10 to 100 nM.

In turn, `Cc1cnc(C(=O)Nc2cccc(-c3nnnn3[C@H](C)CO)n2)cc1-c1cccnc1` [Example 41] came in with an IC50 of 1 to 10 nM. To `Cc1cnc(C(=O)Nc2cccc(-c3nnnn3C(C)C)n2)cc1-c1cnc(C2CC2)s1` [Example 42] belongs 1 to 10 nM. `Cc1cnc(C(=O)Nc2cccc(-c3nnnn3[C@H](C)CO)n2)cc1-c1cnc(C2CC2)s1` [Example 43] returned an IC50 of 1 to 10 nM. To `Cc1cnc(C(=O)Nc2cccc(-c3nnnn3C(C)C)n2)cc1-c1ccc(C2CC2)s1` [Example 44] belongs 10 to 100 nM. In the case of `Cc1cnc(C(=O)Nc2cccc(-c3nnnn3[C@H](C)CO)n2)cc1-c1ccc(C2CC2)s1` [Example 45] it was 1 to 10 nM; in that of `Cc1cc(F)c(C(=O)Nc2cccc(-c3nnnn3C(C)C)n2)cc1-c1cnn(C2CC2)c1` [Example 46], 1 to 10 nM; in that of `Cc1cc(F)c(C(=O)Nc2cccc(-c3nnnn3[C@H](C)CO)n2)cc1-c1cnn(C2CC2)c1` [Example 47], 1 to 10 nM.

For the compound `Cc1cc(F)c(C(=O)Nc2cccc(-c3nnnn3C(C)C)n2)cc1-c1cnn(C(C)C)c1` [Example 49], the IC50 lay in the range of 1 to 10 nM. In the case of `Cc1cc(F)c(C(=O)Nc2cccc(-c3nnnn3[C@H](C)CO)n2)cc1-c1cnn(C(C)C)c1` [Example 50] it was 1 to 10 nM; in that of `Cc1cc(F)c(C(=O)Nc2cccc(-n3nnnc3C(C)C)n2)cc1-c1cnn(C(C)C)c1` [Example 51], 1 to 10 nM; in that of `Cc1cc(F)c(C(=O)Nc2cccc(-c3nnnn3C(C)C)n2)cc1-c1cnn(C(C)(C)C)c1` [Example 52], 1 to 10 nM. To `Cc1cc(F)c(C(=O)Nc2cccc(-n3nnnc3C(C)C)n2)cc1-c1cnn(C(C)(C)C)c1` [Example 53] belongs 1 to 10 nM; to `Cc1cc(F)c(C(=O)Nc2cccc(-c3nnnn3[C@H](C)CO)n2)cc1-c1cnn(C(C)(C)C)c1` [Example 54], 1 to 10 nM.

Regarding `Cc1cc(F)c(C(=O)Nc2cccc(-c3nnnn3C(C)C)n2)cc1-c1cnn(C(F)(F)F)c1` [Example 55], the IC50 lay in the range of 10 to 100 nM.

As for `Cc1cc(F)c(C(=O)Nc2cccc(-n3nnnc3C(C)C)n2)cc1-c1cnn(C(F)(F)F)c1` [Example 56], the IC50 lay in the range of 100 to 1000 nM.

Compound `Cc1cc(F)c(C(=O)Nc2cccc(-c3nnnn3[C@H](C)CO)n2)cc1-c1cnn(C(F)(F)F)c1` [Example 57] yielded an IC50 of 1 to 10 nM.

Consider `Cc1cc(F)c(C(=O)Nc2cccc(-c3nnnn3C(C)C)n2)cc1-c1ccn(C(C)C)n1` [Example 58], for which the IC50 lay in the range of 10 to 100 nM. In the case of `Cc1cc(F)c(C(=O)Nc2cccc(-n3nnnc3C(C)C)n2)cc1-c1ccn(C(C)C)n1` [Example 59] it was more than 1000 nM; in that of `Cc1cc(F)c(C(=O)Nc2cccc(-c3nnnn3[C@H](C)CO)n2)cc1-c1ccn(C(C)C)n1` [Example 60], 10 to 100 nM. In the case of `Cc1cc(F)c(C(=O)Nc2cccc(-c3nnnn3C(C)C)n2)cc1-c1cn(C(C)C)cn1` [Example 61] it was 10 to 100 nM; in that of `Cc1cc(F)c(C(=O)Nc2cccc(-n3nnnc3C(C)C)n2)cc1-c1cn(C(C)C)cn1` [Example 62], more than 1000 nM.

(Values after patent US11008304B2, “Tetrazole containing apoptosis signal-regulating kinase 1 inhibitors and methods of use thereof” (ENANTA PHARMACEUTICALS, INC., priority 2018, dated 2021).)
